We go through one compound from BindingDB's records for patent US20250346592 (Celgene, 2025).

A value given as a limit tells only on which side of the number the result lay.

The experiment has as its target Protein-arginine deiminase type-4 (Homo sapiens, UniProt Q9UM07). As to the kind of experiment: RFMS2 Assay. The protocol: Final Assay Conditions:Total reaction volume: 25 μlAssay buffer: […] pH 7.4, 200 mM NaCl, 2 mM CaCl2, 5 mM DTT35 nM recombinant human PAD4500 μM TSTGGRQGSHH peptide1.2% DMSOStop solution: 10% formic acidReaction mixtures were incubated at room temperature for 30 minutes. 10 μl each of the reaction mixtures was then mixed with 40 μl of 10% formic acid in a microtiter plate. The plate was frozen at −80° C. before shipping out on dry ice for RapidFire mass spectroscopy analysis.Thawed samples were loaded onto the Rapid Fire 300 system (Agilent) wherein they were first sipped for 250 ms and then loaded onto a Agilent “C” (C18) cartridge using a mobile phase of water containing 0.09% formic acid/0.01% trifluoroacetic acid for 3000 ms desalting flowing at a rate of 1.5 ml/min. Once the samples were loaded and washed, a mobile phase of acetonitrile containing 0.09% formic acid/0.01% trifluoroacetic acid was used to elute the samples directly onto a Sciex API4000 triple quadrupole mass spectrometer for 3000 ms at a flow rate of 1.25 ml/min.

Chain of Protein-arginine deiminase type-4 (Q9UM07 whole entry): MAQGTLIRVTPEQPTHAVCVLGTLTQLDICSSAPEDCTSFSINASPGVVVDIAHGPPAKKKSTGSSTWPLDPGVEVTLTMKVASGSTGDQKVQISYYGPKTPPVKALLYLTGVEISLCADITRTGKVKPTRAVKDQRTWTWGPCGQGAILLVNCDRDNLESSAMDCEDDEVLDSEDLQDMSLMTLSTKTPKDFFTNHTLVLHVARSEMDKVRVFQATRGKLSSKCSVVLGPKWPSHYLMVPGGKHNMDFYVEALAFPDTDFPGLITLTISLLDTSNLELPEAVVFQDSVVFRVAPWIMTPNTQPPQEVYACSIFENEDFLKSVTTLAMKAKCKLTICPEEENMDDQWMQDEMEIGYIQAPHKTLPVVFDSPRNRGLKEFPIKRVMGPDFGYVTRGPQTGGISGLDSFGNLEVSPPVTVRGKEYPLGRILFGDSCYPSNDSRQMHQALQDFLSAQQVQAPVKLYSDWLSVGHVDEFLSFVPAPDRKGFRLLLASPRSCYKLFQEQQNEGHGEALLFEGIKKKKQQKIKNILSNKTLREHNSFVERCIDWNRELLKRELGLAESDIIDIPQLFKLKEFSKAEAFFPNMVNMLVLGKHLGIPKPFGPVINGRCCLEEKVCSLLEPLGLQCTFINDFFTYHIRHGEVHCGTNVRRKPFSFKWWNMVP

A word on the IC50: it is the point on the concentration scale where inhibition reaches its midpoint. In turn, `COc1cccc2cc(-c3nc4cc5c(cc4n3C)CCN(C[C@H](N)CF)C5=O)n(CC(=O)N(C)C)c12` [US20250346592, Example 122] returned an IC50 of over 1000 nM.
